Reference: patent US9993001B2, “Herbicidal composition” (ISHIHARA SANGYO KAISHA, LTD., priority 2014, dated 2018)

How the values were obtained:
Type in all cases: in vivo
[1] = system: black nightshade (Solanum nigrum L.); experiment: Test Example 31: pot, soil treatment, metobromuron + thiobencarb; settings: soil treatment, pot, 20th day after treatment, read-out: Growth inhibition rate of black nightshade (%) Measured value
Source text: (§1) When the herbicidal activity in a case where two active ingredients are combined, is larger than the simple sum of the respective herbicidal activities of the two active ingredients (the expected activity), it is called a synergistic effect. The activity expected by the combination of two active ingredients can be calculated as follows (Colby S. R., “Weed”, vol. 15, p. 20-22, 1967). E=α+β−(α×β[…]) where α: growth inhibition rate when treated with x (g/ha) of herbicide X, • β: growth inhibition rate when treated with y (g/ha) of herbicide Y, • E: growth inhibition rate expected when treated with x (g/ha) of herbicide X and y (g/ha) of herbicide Y.
(§2) On the 19th day after treatment, the state of growth of barnyardgrass was visually observed and evaluated in accordance with the following standards. The growth inhibition rate (%) [measured value] and the growth inhibition rate (%) [calculated value] calculated by the Colby's method, are shown in Table 2.
(§3) Growth inhibition rate (%)=inhibition rate) (%) of 0 (equivalent to the non-treated area) to 100 (complete kill)
(§4) Soil was put into a 1/300,000 ha pot, and seeds of common lambsquarters (Chenopodium album L.) were sown. On the day after seeding, predetermined amounts of SC containing metobromuron as active ingredient (same as in Test Example 1) and EC containing thiobencarb as active ingredient (trade name: Saturn NYUZAI, manufactured by KUMIAI CHEMICAL INDUSTRY Co., Ltd.) were diluted with water corresponding to 1,000 L per hectare and applied for soil treatment.
(§5) On the 20th day after treatment, the state of growth of common lambsquarters was visually observed and evaluated in the same manner as in Test Example 1.
The test was carried out in the same manner as in Test Example 30 except that common lambsquarters (Chenopodium album L.) was changed to black nightshade (Solanum nigrum L.), to obtain the results as shown in Table 32.

[2] = system: common lambsquarters (Chenopodium album L.); experiment: Test Example 30: pot, soil treatment, metobromuron + thiobencarb; settings: soil treatment, pot, 20th day after treatment, read-out: Growth inhibition rate of common lambsquarters (%) Measured value
Source text: as §1, §2, §3, §4, §5

[3] = system: black nightshade (Solanum nigrum L.); experiment: Test Example 26: pot, soil treatment, metobromuron + prosulfocarb; settings: soil treatment, pot, 21st day after treatment, read-out: Growth inhibition rate of black nightshade (%) Measured value
Source text: as §1, §2, §3
as §4, with “black nightshade (Solanum nigrum” for “common lambsquarters (Chenopodium album”, “prosulfocarb” for “thiobencarb”, “BOXER” for “Saturn”, “Syngenta)” for “KUMIAI CHEMICAL INDUSTRY Co., Ltd.)”
(§6) On the 21st day after treatment, the state of growth of black nightshade was visually observed and evaluated in the same manner as in Test Example 1.

[4] = system: black nightshade (Solanum nigrum L.); experiment: Test Example 14: pot, soil treatment, metobromuron + pyroxasulfone; settings: soil treatment, pot, 12th day after treatment, read-out: Growth inhibition rate of black nightshade (%) Measured value
Source text: as §1, §2, §3
(§7) Soil was put into a 1/300,000 ha pot, and seeds of black nightshade (Solanum nigrum L.) were sown. Prior to germination of black nightshade, predetermined amounts of SC containing metobromuron as active ingredient (same as in Test Example 1) and WG containing pyroxasulfone as active ingredient (same as in Test Example 13) were diluted with water corresponding to 1,000 L per hectare and applied for soil treatment.
On the 12th day after treatment, the state of growth of black nightshade was visually observed and evaluated in the same manner as in Test Example 1.

[5] = system: velvetleaf (Abutilon theophrasti MEDIC.); experiment: Test Example 13: pot, soil treatment, metobromuron + pyroxasulfone; settings: soil treatment, pot, 12th day after treatment, read-out: Growth inhibition rate of velvetleaf (%) Measured value
Source text: as §1, §2, §3
as §7, with “velvetleaf (Abutilon theophrasti MEDIC.)” for “black nightshade (Solanum nigrum L.)”, “velvetleaf,” for “black nightshade,”, “(trade name: Sakura 850 WG, manufactured by Bayer CropScience)” for “(same as in Test Example 13)”
On the 12th day after treatment, the state of growth of velvetleaf was visually observed and evaluated in the same manner as in Test Example 1.

[6] = system: large crabgrass (Diqitaria sanquinalis L.); experiment: Test Example 22: pot, soil treatment, metobromuron + prometryn; settings: Digitaria sanguinalis, soil treatment, pot, 21st day after treatment, read-out: Growth inhibition rate of large crabgrass (%) Measured value
Source text: as §1, §2, §3
as §4, with “barnyardgrass (Echinochloa crus-qalli” for “common lambsquarters (Chenopodium album”, “WP” for “EC”, “prometryn” for “thiobencarb”, “Gesagard 50,” for “Saturn NYUZAI,”, “Nippon Kayaku” for “KUMIAI CHEMICAL INDUSTRY”
(§8) On the 21st day after treatment, the state of growth of barnyardgrass was visually observed and evaluated in the same manner as in Test Example 1.
The test was carried out in the same manner as in Test Example 21 except that barnyardgrass (Echinochloa crus-qalli L.) was changed to large crabgrass (Diqitaria sanquinalis L.), to obtain the results as shown in Table 23.

[7] = system: barnyardgrass (Echinochloa crus-qalli L.); experiment: Test Example 21: pot, soil treatment, metobromuron + prometryn; settings: soil treatment, pot, 21st day after treatment, read-out: Growth inhibition rate of barnyardgrass (%) Measured value
Source text: as §1, §2, §3
as §4, with “barnyardgrass (Echinochloa crus-qalli” for “common lambsquarters (Chenopodium album”, “WP” for “EC”, “prometryn” for “thiobencarb”, “Gesagard 50,” for “Saturn NYUZAI,”, “Nippon Kayaku” for “KUMIAI CHEMICAL INDUSTRY”
as §8

[8] = system: large crabgrass (Digitaria sanquinalis L.); experiment: Test Example 29: pot, soil treatment, metobromuron + indanofan; settings: soil treatment, pot, 20th day after treatment, read-out: Growth inhibition rate of large crabgrass (%) Measured value
Source text: as §1, §2, §3
Soil was put into a 1/300,000 ha pot, and seeds of large crabgrass (Digitaria sanquinalis L.) were sown. On the day after seeding, predetermined amounts of SC containing metobromuron as active ingredient (same as in Test Example 1) and WP containing indanofan as active ingredient were diluted with water corresponding to 1,000 L per hectare and applied for soil treatment.
On the 20th day after treatment, the state of growth of large crabgrass was visually observed and evaluated in the same manner as in Test Example 1.

[9] = system: black nightshade (Solanum nigrum L.); experiment: Test Example 27: pot, soil treatment, metobromuron + flufenacet; settings: soil treatment, pot, 21st day after treatment, read-out: Growth inhibition rate of black nightshade (%) Measured value
Source text: as §1, §2, §3
as §4, with “black nightshade (Solanum nigrum” for “common lambsquarters (Chenopodium album”, “prosulfocarb” for “thiobencarb”, “BOXER” for “Saturn”, “Syngenta)” for “KUMIAI CHEMICAL INDUSTRY Co., Ltd.)”
as §6
The test was carried out in the same manner as in Test Example 26 except that EC containing prosulfocarb as active ingredient was changed to SC containing flufenacet as active ingredient (trade name: Cadou, manufactured by Bayer CropScience), to obtain the results as shown in Table 28.

In the case of `CCN(CC)C(=O)SCc1ccc(Cl)cc1` [Thiobencarb, S-4-chlorobenzyl diethyl(thiocarbamate)], the inhibition at 296.3 g/ha ([1]; 296.3 g/ha) is reported as 25%, the inhibition at 444.4 g/ha ([1]; 444.4 g/ha) is reported as 23% and the inhibition at 666.7 g/ha ([1]; 666.7 g/ha) is reported as 20%. It also gave an inhibition at 296.3 g/ha ([2]; 296.3 g/ha) of 0%, an inhibition at 444.4 g/ha ([2]; 444.4 g/ha) of 0% and an inhibition at 666.7 g/ha ([2]; 666.7 g/ha) of 0%.
Compound `CCCN(CCC)C(=O)SCc1ccccc1` [Prosulfocarb, S-benzyl dipropyl(thiocarbamate)] has an inhibition at 653.4 g/ha ([3]; 653.4 g/ha) of 50%, an inhibition at 980 g/ha ([3]; 980 g/ha) of 50% and an inhibition at 1470 g/ha ([3]; 1470 g/ha) of 50%.
For `Cn1nc(C(F)(F)F)c(CS(=O)(=O)C2=NOC(C)(C)C2)c1OC(F)F` [Pyroxasulfone, 3-[5-(difluoromethoxy)-1-methyl-3-(trifluoromethyl)pyrazol-4-ylmethylsulfonyl]-4,5-dihydro-5,5-dimethyl-1,2-oxazole], the inhibition at 25 g/ha ([4]; 25 g/ha) was 50%, the inhibition at 33 g/ha ([4]; 33 g/ha) was 64% and the inhibition at 50 g/ha ([4]; 50 g/ha) was 73%. It also gave an inhibition at 25 g/ha ([5]; 25 g/ha) of 25%, an inhibition at 33 g/ha ([5]; 33 g/ha) of 28% and an inhibition at 50 g/ha ([5]; 50 g/ha) of 38%.
For `CSc1nc(NC(C)C)nc(NC(C)C)n1` [Prometryn, N^2,N^4-diisopropyl-6-methylthio-1,3,5-triazine-2,4-diamine], the inhibition at 300 g/ha ([6]; 300 g/ha) was 62%, the inhibition at 400 g/ha ([6]; 400 g/ha) was 76% and the inhibition at 300 g/ha ([7]; 300 g/ha) was 15%. It also gave an inhibition at 400 g/ha ([7]; 400 g/ha) of 38%.
For `CCC1(CC2(c3cccc(Cl)c3)CO2)C(=O)c2ccccc2C1=O` (racemic) [Indanofan, (RS)-2-[2-(3-chlorophenyl)-2,3-epoxypropyl]-2-ethyl indane-1,3-dione], the inhibition at 25 g/ha ([8]; 25 g/ha) was 25%, the inhibition at 37.5 g/ha ([8]; 37.5 g/ha) was 25% and the inhibition at 56.3 g/ha ([8]; 56.3 g/ha) was 28%.
Compound `CC(C)N(C(=O)COc1nnc(C(F)(F)F)s1)c1ccc(F)cc1` [Flufenacet, 4′-fluoro-N-isopropyl-2-[5-(trifluoromethyl)-1,3,4-thiadiazol-2-yloxy] acetanilide] has an inhibition at 83.35 g/ha ([9]; 83.35 g/ha) of 30%, an inhibition at 125 g/ha ([9]; 125 g/ha) of 25% and an inhibition at 187.5 g/ha ([9]; 187.5 g/ha) of 40%.
